As a reminder, the IC50 is the point on the concentration scale where inhibition reaches its midpoint. Usually IC90 stands for the concentration needed for an effect of 90%.

From patent publication US20190183960A1, “METHOD TO TREAT ASTHMA AND AIRWAY ALLERGY USING CYCLO TYROSINE-VALINE AND RELATED COMPOUNDS” (Chang Gung Biotechnology Corp., priority 2017, published 2019) come the findings set out here.

Data set [1] relates to IL-4 secretion by Th2 cells. In words: IL-4 secretion by Th2 cells derived from BALB/c mice (ELISA). Conditions: 3 days; for secretion of pro-inflammatory IL-4 by Th2 cells: 2.3 μM, vs vehicle (0.5% DMSO). Format: cell-based. The procedure:
Given that Th2 cells mediate the immunological effects of asthma in humans and animals, we tested the effects of cyclo Tyr-Val on Th2 cells in culture. Naive T cells were isolated from BALB/c mice, and the cells were incubated in a culture medium containing anti-CD3 antibody (2 μg/ml), anti-CD28 antibody (2 μg/ml), anti-interferon-γ (IFN-γ) antibody (10 μg/ml), and IL-4 (10 ng/ml) in order to induce T cell differentiation into Th2 cells. The Th2 cells were treated for 3 days with 2.3 μM of cyclo Tyr-Val, cyclo alanine-isoleucine (cyclo Ala-Ile), cyclo alanine-leucine (cyclo Ala-Leu), cyclo tyrosine-leucine (cyclo Tyr-Leu), cyclo alanine-phenylalanine (cyclo Ala-Phe), or cyclo tyrosine-isoleucine (cyclo Tyr-Ile), and IL-4 protein level was measured using an enzyme-linked immunosorbent assay (ELISA) kit (eBioscience, USA).
(§1) We confirmed that cyclo Tyr-Val inhibits IL-4 secretion by Th2 cells. Th2 cells isolated from BALB/c or C57BL/6J mice were either left untreated or treated for 3 days with the vehicle (0.5% DMSO in saline) or various concentrations of cyclo Tyr-Val, followed by detection of IL-4 production using ELISA.
(§2) The effects of cyclo Tyr-Val on the secretion of other pro-inflammatory cytokines were investigated. […] As shown in FIGS. 4A-4C, cyclo Tyr-Val inhibited not only the secretion of IL-4, but also that of IL-5 and IL-13.
In general terms: An ELISA detects its analyte on a solid surface through an enzyme-linked reagent.

Data set [2] deals with IL-4 secretion by Th2 cells. Nature of the data set: IL-4 secretion by Th2 cells derived from C57BL/6J mice (ELISA). Format: cell-based. Conditions: 3 days.
Description: as §1

A further data set has as its system Th2 cells. Nature of the data set: Viability of Th2 cells (WST-1 kit). Format: cell-based, BALB/c mice. Conditions: 0.018-285.932 μM, 3 days. On the procedure:
Experiments were performed to examine the effects of cyclo Tyr-Val on cell viability. Th2 cells isolated from BALB/c mice were either left untreated or treated for 3 days with the vehicle (0.5% DMSO in saline) or cyclo Tyr-Val at a concentration of 0.018, 0.091, 0.457, 2.287, 11.438, 57.186, or 285.932 μM. The viability of these cells was assessed using the WST-1 kit (Roche, Switzerland) according to the manufacturer's instructions.

Data set [3] has as its system IL-5 secretion by Th2 cells. In words: IL-5 secretion by Th2 cells derived from BALB/c mice (ELISA). The data set is classed as cell-based. Conditions: 0.25 μM, 3 days.
Description: as §2

Data set [4] deals with IL-13 secretion by Th2 cells. Nature of the data set: IL-13 secretion by Th2 cells derived from BALB/c mice (ELISA). Format: cell-based. Conditions: 0.25 μM, 3 days.
Description: as §2

Data set [5] has as its system OVA-induced asthmatic mice. Nature of the data set: OVA-induced airway hyperresponsiveness (Penh, whole-body plethysmography, methacholine). Conditions: IP 0.11304-113.04 nmol/kg per day, day 21 to 27, methacholine 0-40 mg/ml. The data set is classed as in vivo, BALB/c mice. On the procedure: Given that asthma is characterized by hyperresponsiveness to airway stimulants, we examined the effect of cyclo Tyr-Val on AHR in the OVA-induced asthmatic mice stimulated with the exemplary antigen OVA and methacholine (Mch). BALB/c mice were treated intraperitoneally with 50 μg of OVA (Sigma, USA) mixed with 0.8 mg of aluminum hydroxide (Thermo Fischer Scientific, USA) on day 0, 1, 2, and 14, and treated with 2% OVA for 20 minutes using a nebulizer (Pulmo-Aide 5650D; DeVilbiss, USA) on day 14, 17, 21, 24, and 27. The OVA-induced asthmatic mice were intraperitoneally treated with the vehicle (0.5% DMSO in saline) or cyclo Tyr-Val at a dose of 0.11304, 1.1304, 11.304, or 113.04 nmol/kg of body weight per day on day 21 to 27. Airway resistance (Penh) was measured using a whole-body plethysmography (WBP) chamber (Buxco Electronics, USA) after stimulation with methacholine at doses of 0, 10, 20, 30, and 40 mg/ml.

Data set [6] deals with OVA-induced asthmatic mice. In words: BALF total cell and eosinophil count in OVA-induced asthmatic mice. The data set is classed as in vivo, BALB/c mice. Conditions: IP 0.11304-113.04 nmol/kg per day, day 21 to 27. The text has this:
(§3) Given that asthma is characterized by accumulation of immune cells including eosinophils in lung tissues, we studied the effects of cyclo Tyr-Val on BALF cell count, pro-inflammatory cytokine secretion, and antibody production. OVA-induced asthmatic mice (BALB/c) were established according to the method described in Example 2. After the mice were intraperitoneally treated with the vehicle (0.5% DMSO in saline) or cyclo Tyr-Val at a dose of 0.11304, 1.1304, 11.304, or 113.04 nmol/kg of body weight per day on day 21 to 27, BALF and serum were collected. Total cell count in BALF was determined using a hemocytometer; eosinophils were counted after isolation using Cytospin. Protein levels of IL-4, IL-5, and IL-13 in BALF were determined using ELISA. Serum protein levels of OVA-specific antibodies, including IgE, IgG1, and IgG2a, were determined using ELISA (eBioscience).

The test system of data set [7] is OVA-induced asthmatic mice. Nature of the data set: IL-4, IL-5, IL-13 protein levels in BALF of OVA-induced asthmatic mice (ELISA). The data set is classed as in vivo, BALB/c mice. Conditions: IP 0.11304-113.04 nmol/kg per day, day 21 to 27.
Description: as §3

Data set [8] deals with OVA-induced asthmatic mice. Nature of the data set: Serum OVA-specific antibodies in OVA-induced asthmatic mice (ELISA). The data set is classed as in vivo, BALB/c mice. Conditions: IP 0.11304-113.04 nmol/kg per day, day 21 to 27.
Description: as §3

Data set [9] has as its system OVA-induced asthmatic mice. Nature of the data set: Mode of administration (IP, inhalation, oral) in OVA-induced asthmatic mice. Conditions: 11.304 nmol/kg per day, 7 days. Format: in vivo, BALB/c mice. On the procedure: This example illustrates the effects of the mode of administration of cyclo Tyr-Val on asthmatic mice. OVA-induced asthmatic mice (BALB/c) were established according to the method described in Example 2. On day 21, the mice were treated intraperitoneally (IP), by inhalation (IH), or orally with cyclo Tyr-Val (at a dose of 11.304 nmol/kg of body weight per day) for 7 days, followed by assessment of AHR, total cell count in BALF, and eosinophil count in BALE OVA-induced asthmatic mice that were administered daily with the vehicle (0.5% DMSO in saline) intraperitoneally were used as control. As shown in FIGS. 9A-9C, treatment of OVA-induced asthmatic mice with cyclo Tyr-Val for 7 days via intraperitoneal injection, inhalation, or the oral route reduced AHR, total BALF cell count, and BALF eosinophil accumulation, compared with the vehicle-treated group.

For data set [10], the system named is OVA-induced asthmatic mice. In words: Treatment after establishment of OVA-induced AHR, comparison with dexamethasone. Format: in vivo, BALB/c mice. Conditions: IP 11.304 nmol/kg per day, day 28 to 34, after establishment of AHR. The procedure:
In this example, the anti-asthmatic effect of cyclo Tyr-Val was compared with those of dexamethasone, a pharmaceutical drug conventionally used to treat asthma. OVA-induced asthmatic mice (BALB/c) were established according to the method described in Example 2. The mice were treated with 2% OVA using a nebulizer on day 30 and 33 and were intraperitoneally treated with the vehicle (0.5% DMSO in saline) or cyclo Tyr-Val (at a dose of 11.304 nmol/kg of body weight per day) on day 28 to 34, followed by measurement of AHR, total cell count in BALF, and eosinophil count in BALF. Another group of OVA-induced asthmatic mice that were treated orally with dexamethasone (at a dose of 3 mg/kg of body weight per day) on day 28 to 34 were used as a positive control.

Data set [11] is described as follows: Blood biochemical parameters (hepatic and renal functions) in mice. Conditions: IP 11.304 nmol/kg. Format: in vivo. On the procedure: The effects of cyclo Tyr-Val treatment on hepatic and renal functions in mice were evaluated to determine if the compound produces toxic side effects. For these experiments, saline-treated mice (control group) or OVA-induced asthmatic mice were intraperitoneally treated with the vehicle (0.5% DMSO in saline) or cyclo Tyr-Val (at a dose of 11.304 nmol/kg), followed by measurement of blood biochemical parameters, including levels of aspartate transaminase (AST), alanine transaminase (ALT), total bilirubin (T-BIL), albumin (ALB), blood urea nitrogen (BUN), creatinine (CREA), and uric acid (UA). The blood biochemical parameters were monitored using a Hitachi 7080 biochemical analyzer (Hitachi, Japan).

In the case of `CC(C)C[C@@H]1NC(=O)[C@H](C)NC1=O` [cyclo Ala-Leu, cyclo alanine-leucine, reference compound], the “secretion of pro-inflammatory IL-4 by Th2 cells” value (shortened to “secretion … by Th2 cells”) in data set [1] is given as “failed to inhibit IL-4 secretion”.

Turning to `CC[C@H](C)[C@@H]1NC(=O)[C@H](Cc2ccc(O)cc2)NC1=O` [cyclo Tyr-Ile, cyclo tyrosine-isoleucine, reference compound], the “secretion … by Th2 cells” value in data set [1] was “failed to inhibit IL-4 secretion”.

As for `CC(C)CC1NC(=O)C(Cc2ccc(O)cc2)NC1=O` (stereo not shown) [cyclo Tyr-Leu, cyclo tyrosine-leucine], in [1], the “secretion … by Th2 cells” value is reported as “inhibited IL-4 to some extent”.

On to `CC1NC(=O)C(Cc2ccccc2)NC1=O` (stereo not shown) [cyclo Ala-Phe, cyclo alanine-phenylalanine, reference compound], for which, in [1], the “secretion … by Th2 cells” value was “failed to inhibit IL-4 secretion”.

`CC(C)C1NC(=O)C(Cc2ccc(O)cc2)NC1=O` (stereo not shown) [cyclo Tyr-Val, cyclo tyrosine-valine]: in data set [1] (0.25 μM), the “secretion of IL-4” value was “inhibited”. The “secretion … by Th2 cells” value in data set [1] is “significantly inhibited”. Moreover, the 50% inhibitory concentration (IC50) in data set [1] (Mus musculus, 72 h, Th2 cells from BALB/c mice, read-out: IC50, inhibition of IL-4 secretion) was determined as 26.4 nM. In data set [1] (Mus musculus, 72 h, Th2 cells from BALB/c mice, read-out: IC90, inhibition of IL-4 secretion), the concentration for an effect of 90% (IC90) was found to be 252 nM. For the same compound, in [1] (various concentrations, BALB/c Th2 cells), the “IL-4 secretion, dose dependence” value is listed as “inhibited IL-4 secretion in a dose-dependent manner”. Moreover, the IC50 in [2] (Mus musculus, 72 h, Th2 cells from C57BL/6J mice, read-out: IC50, inhibition of IL-4 secretion) is 45.1 nM. The concentration for an effect of 90% (IC90) in [2] (Mus musculus, 72 h, Th2 cells from C57BL/6J mice, read-out: IC90, inhibition of IL-4 secretion) was determined as 357 nM. Further, the “IL-4 secretion, dose dependence” value in data set [2] (various concentrations, C57BL/6J Th2 cells) is given as “inhibited IL-4 secretion in a dose-dependent manner”. For the same compound, in the data set with Th2 cells, the “cytotoxic effects on cultured Th2 cells (viability)” value is listed as “no cytotoxic effects”. Moreover, in [3], the “secretion of IL-5” value was “inhibited”. Besides, the “secretion of IL-13” value in data set [4] is on record as “inhibited”. In addition, the “OVA-induced AHR (airway resistance, Penh)” value in data set [5] was “inhibited OVA-induced AHR in a dose-dependent manner”. Moreover, in data set [6], the “OVA-induced cell infiltration in BALF (total cell count)” value is listed as “reduced” and the “OVA-induced eosinophilia in BALF” value is “reduced”. Also, in [7], the “OVA-induced secretion of IL-4 in BALF” value is listed as “reduced”, the “OVA-induced secretion of IL-5 in BALF” value is “reduced” and the “OVA-induced secretion of IL-13 in BALF” value is reported as “reduced”. Also, in data set [8], the “OVA-specific IgE production in sera” value is “dose-dependently reduces”, the “OVA-specific IgG1 production in sera” value is given as “dose-dependently reduces” and the “OVA-specific IgG2a production in sera” value is given as “dose-dependently reduces”. Besides, in data set [9] (inhalation), the AHR entry is reported as “reduced”, the BALF eosinophil accumulation result was “reduced” and the “total BALF cell count” value was “reduced”. In addition, in data set [9] (intraperitoneal injection), the AHR result was “reduced”, the BALF eosinophil accumulation result is recorded as “reduced” and the “total BALF cell count” value is reported as “reduced”. In [9] (oral route), the AHR entry is “reduced”, the BALF eosinophil accumulation entry was “reduced” and the “total BALF cell count” value is listed as “reduced”. In [10], the AHR entry is recorded as “significantly reduced”, the BALF eosinophil accumulation result is listed as “significantly reduced” and the “BALF total cell count” value was “significantly reduced”. Besides, in data set [11] (OVA-induced asthmatic mice), the ALB was 2.737 ± 0.322 g/dL, the ALT stood at 26.673 ± 2.279 U/l, the AST came to 69.718 ± 4.115 U/l and the BUN is 25.864 ± 2.638 mg/dL. In data set [11] (OVA-induced asthmatic mice), the CREA turned out to be 0.250 ± 0.078 mg/dL, the T-BIL is 26.508 ± 2.454 µg/dL and the UA worked out at 2.690 ± 0.275 mg/dL. For the same compound, the “hepatic or renal functions” value in data set [11] (control and OVA-induced asthmatic mice) was “did not significantly affect”. Also, in data set [11] (control mice), the ALB amounted to 2.669 ± 0.480 g/dL, the ALT is reported as 26.283 ± 2.813 U/l, the AST was found to be 70.775 ± 3.056 U/l and the BUN was 26.588 ± 2.756 mg/dL. In data set [11] (control mice), the CREA worked out at 0.236 ± 0.124 mg/dL, the T-BIL was 26.169 ± 3.536 µg/dL and the UA amounted to 2.979 ± 0.412 mg/dL.

Take `CC[C@H](C)[C@@H]1NC(=O)[C@H](C)NC1=O` [cyclo Ala-Ile, cyclo alanine-isoleucine, reference compound]: the “secretion … by Th2 cells” value in [1] is on record as “failed to inhibit IL-4 secretion”.
